Literature values, collected in patent publication US20070003621A1, “Dosage forms for movement disorder treatment” (Spherics, Inc., priority 2005, published 2007).

Details: doses of 400 mg per day

SMILES: C[C@@](Cc1ccc(O)c(O)c1)(NN)C(=O)O [carbidopa]
- adverse effects: fails to elicit adverse effects
